From patent publication US20250235531A1, “MUCOSAL ADMINISTRATION METHODS AND FORMULATIONS” (priority 2022, published 2025)

Columns and labels:
[1] = test system: HeLa; test: Protein expression in human cervical cancer epithelial cell (HeLa) model, NPI-Luc mRNA LNPs; assay type: cell-based; conditions: LNP core Compound 18, DSPC
Method: NPI-Luc is a dual read reporter made by adding a 5×V5 tag and a C-myc nuclear localization sequence at the N-terminus of Firefly Luciferase to enhance the signal to noise ratio. Protein expression can be detected using OneGLo assays with luminescence readout or by immunofluorescence with anti-V5 antibodies. Protein expression was evaluated according to the procedure outlined in Example 6. The LNPs are dosed in 4 wells and the average response was reported. For the HeLa assay the luminescence read (RLU) were normalized to cell counts.

[2] = test system: respiratory epithelium (trachea, bronchi); test: LNP protein expression in rat respiratory epithelium after single intratracheal dose (anti-V5 IHC); conditions: intratracheal ~1.2 mpk, NPI-Luc mRNA, LNP core Compound 18, DSPC, Cholesterol, and DMG-PEG 2K
Method: (§1) Animals are anesthetized under isoflurane. The tongue is displaced and a small diameter cannula is inserted into the trachea (oropharyngeal route). The cannula tip is passed through the vocal chords, down the trachea so that the tip is very near, but not touching, the carina. Upon placement, 50 μL (mouse) or 200 μL (rat) of formulation is infused into the lungs. After 30 seconds upright, animads are released into a recovery cage and returned to their respective cages once recovered.
(§2) Trachea, lungs and for the aerosol study nasal cavities, nasopharynx and larynx are collected for analysis. Lungs are inflated with 10% NBF fixative and trachea tied off to maintain inflation. Lungs are removed en bloc with attached trachea, bronchi and lobes. […]
(§3) IHC was performed on FFPE sections using the Leica Bond RX autostainer. NPI-Luc protein expression was detected by anti-V5 tag antibody at a 1:100 dilution. V5 antibody was detected with the Bond Polymer Refine Detection kit followed by hematoxylin and bluing reagent counterstain. […] Trachea, lung and/or nasal cavity images were analyzed to capture total tracheal, bronchial or nasal epithelial cells and data expressed when appropriate as % V5 positive epithelial cells per total epithelial cells per animal. […]

[3] = test system: respiratory epithelium (trachea, bronchi); test: LNP protein expression in mouse respiratory epithelium after single intratracheal dose (anti-V5 IHC); conditions: intratracheal ~0.7 mpk, NPI-Luc mRNA, LNP core Compound 18, DSPC, Cholesterol, and DMG-PEG 2K
Method: as §1, §2, §3

[4] = test system: healthy HBE cells; test: LNP cellular uptake and protein expression in healthy HBE cells; assay type: cell-based, human; conditions: NPI-Luc mRNA, LNP core Compound 18, DSPC, Cholesterol, and DMG-PEG 2K
Method: NP-Luc is a dual read reporter made by adding a 5×V5 tag and a C-myc nuclear localization sequence at the N-terminus of Firefly Luciferase to enhance the signal to noise ratio. Protein expression can be detected using OneGLo assays with luminescence readout or by immunofluorescence with anti-V antibodies. LNP cellular uptake and protein expression was evaluated according to the procedure outlined in Example 5.

[5] = Nanoparticle zeta potential (Malvern Zetasizer); assay type: physicochemical; conditions: [mRNA] 0.01 mg/mL in 0.1×PBS, core LNP Compound 18, DSPC, Cholesterol, and DMG-PEG 2K
Method: LNPs were prepared according to Example 1. Zeta potential was measured by diluting LNPs to [mRNA]0.01 mg/mL in 0.1×PBS on a Malvern Zetasizer (Nano ZS).

[6] = Luciferase mRNA nanoparticle biophysical data (DLS diameter and PDI, Ribogreen encapsulation); assay type: physicochemical; conditions: luciferase mRNA nanoparticles (IL1:DSPC:cholesterol:PEG-DMG-2K) modified with the lipid amine; for Diameter (nm) / PDI: DLS; for % Encapsulation (Ribogreen): Ribogreen assay
Method: Lipids are dissolved in ethanol at a concentration of 24 mg/mL and molar ratios of 49.0:11.2:39.3:0.5 (IL1:DSPC:cholesterol:PEG-DMG-2K) and mixed with the acidification buffer (45 mM acetate buffer at pH 4). The lipid solution and acidification buffer are mixed using a multi-inlet vortex mixer at a 3:7 volumetric ratio of lipid:buffer for mixer 1 and mixer 2 and a 1:3 volumetric ratio of lipid:buffer (25% ethanol) for mixer 3. After a 5 second residence time, the resulting nanoparticles are mixed with 55 mM sodium acetate at pH 5.6 at a volumetric ratio of 5:7 of nanoparticle:buffer. See Table 24 for mixing parameters. The resulting dilute nanoparticles are then buffer exchanged and concentrated using tangential flow filtration (TFF) into a final buffer containing 5 mM sodium acetate pH 5.0. Then a 70% sucrose solution in 5 mM acetate buffer at pH 5 is subsequently added.
The resulting nanoparticles at a lipid concentration of 7.33 mg/mL in 5 mM acetate (pH 5) and 75 g/L sucrose are mixed with mRNA (luciferease) at a concentration of 0.625 mg/mL in 42.5 mM sodium acetate pH 5.0, with N:P of 4.93. The nanoparticle solution and nanoparticles are mixed using a multi-inlet vortex mixer at a 3:2 volumetric ratio of nanoparticle:mRNA. Once loaded with mRNA, these intermediate nanoparticles undergo a 300 second residence time prior addition of neutralization buffer containing 120 mM TRIS pH 8.12 at a volumetric ratio of 5:1 of nanoparticle:buffer.
For HeLa studies evaluating luciferase protein expression, PEG-DMG-2K dissolved in a 20 mM TRIS buffer (pH 7.5) is added to the neutralized intermediate nanoparticle solution at a ratio of 1:6, bringing the solution to the final molar ratios of IL1:DSPC:cholesterol:PEG-DMG-2K of 48.5:11.1:38.9:1.5%. This nanoparticle formulation is then modified with lipid amines. In a typical example, nanoparticle formulation at a concentration of 0.18 mg/mL mRNA and a 0.56 mL volume is modified with lipid amine SA50 (467.2 nmol) prepared in buffer containing 20 mM IRIS, 14.3 mM sodium acetate, 32 g/L sucrose and 140 mM NaCl—pH 7.5 at a volumetric ratio of 1:1 of nanoparticle: buffer.
Resulting nanoparticle suspensions are filtered through a 0.8/0.2 μm capsule filter and filled into glass vials at an mRNA strength of about 0.1-1 mg/mL Biophysical data (Diameter and PDI from DLS measurements and % Encapsulation using Ribogreen assay) for luciferase mRNA nanoparticles with lipid amines is shown in Table 26.

Structure (SMILES) | Average accumulation of LNP in healthy HBE (% positive cells) ([4]; β-sitosterol) | Average protein expression in healthy HBE (% V5 positive cells) ([4]; β-sitosterol) | Zeta Potential (mV) ([5]; β-sitosterol) | Diameter (nm) [6] [nm] | PDI [6] | % Encapsulation (Ribogreen) [6] [%] | also measured
CC(C)CCC[C@@H](C)[C@H]1CC[C@H]2[C@@H]3CC=C4C[C@@H](OC(=O)N(CCCN)CCCCNCCCN)CC[C@]4(C)[C@H]3CC[C@]12C [SA3] | – | – | – | – | – | – | Average protein expression per cell (RLU per cell) ([1]; Cholesterol, and DMG-PEG 2K): 111.0 RLU per cell; Average % V5 positive cells/total cells ([2]; Rat Bronchi (left and right lung)): 4.95 % V5 positive cells/total cell; Average % V5 positive cells/total cells ([2]; Rat Trachea): 2.97 % V5 positive cells/total cell; Average % V5 positive cells/total cells ([3]; Mouse Bronchi (left lung)): 9.33 % V5 positive cells/total cell; Average % V5 positive cells/total cells ([3]; Mouse Trachea): 40.7 % V5 positive cells/total cell; Average accumulation of LNP in healthy HBE (% positive cells) [4]: 43.7 % positive cells; Average protein expression in healthy HBE (% V5 positive cells) [4]: 9.4 % V5 positive cells; Zeta Potential (mV) [5]: 10.6 mV
CC(C)CCC[C@@H](C)[C@H]1CC[C@H]2[C@@H]3CC=C4C[C@@H](OC(=O)NCCN(C)C)CC[C@]4(C)[C@H]3CC[C@]12C [SA4] | – | – | – | – | – | – | Average protein expression per cell (RLU per cell) ([1]; Cholesterol, and Compound 428): 248.5 RLU per cell
CC(C)c1ccc2c(c1)CC[C@H]1[C@](C)(CNC(=O)CCN(C)C)CCC[C@]21C [SA16] | – | – | – | – | – | – | Average protein expression per cell (RLU per cell) ([1]; Cholesterol, and Compound 428): 14.5 RLU per cell
CC(C)CCC[C@@H](C)[C@H]1CC[C@H]2[C@@H]3CC=C4C[C@@H](OC(=O)NCCNC(=N)N)CC[C@]4(C)[C@H]3CC[C@]12C [SA23] | 34.3 | 9.1 | 12.7 | – | – | – | –
CC(C)CCC[C@@H](C)[C@H]1CC[C@H]2[C@@H]3CC=C4C[C@@H](OC(=O)N(CCCN)CCCCN)CC[C@]4(C)[C@H]3CC[C@]12C [SA29] | 56.2 | 12.1 | 8.3 | – | – | – | –
CC(C)CCC[C@@H](C)[C@H]1CC[C@H]2[C@@H]3CC=C4C[C@@H](OC(=O)NCCCNCCCCN)CC[C@]4(C)[C@H]3CC[C@]12C [SA30] | 49.9 | 11.9 | 8.7 | – | – | – | –
CC(C)CCC[C@@H](C)[C@H]1CC[C@H]2[C@@H]3CC=C4C[C@@H](OC(=O)CCC(=O)N(CCCN)CCCCN)CC[C@]4(C)[C@H]3CC[C@]12C [SA31] | 43.2 | 11.1 | 8.6 | – | – | – | –
CC[C@H](CC[C@@H](C)[C@H]1CC[C@H]2[C@@H]3CC=C4C[C@@H](OC(=O)N(CCCCNCCC(C)N)CCC(C)N)CC[C@]4(C)[C@H]3CC[C@]12C)C(C)C.Cl.Cl.Cl (stereo partly drawn) [SA111, (3S,8S,9S,10R,13R,14S,17R)-17-((2R,5R)-5-ethyl-6-methylheptan-2-yl)-10,13-dimethyl-2,3,4,7,8,9,10,11,12,13,14,15,16,17-tetradecahydro-1H-cyclopenta[a]phenanthren-3-yl (3-aminobutyl)(4-((3-aminobutyl)amino)butyl)carbamate trihydrochloride] | – | – | – | 76 | 0.18 | 99.6 | –
CC[C@H](CC[C@@H](C)[C@H]1CC[C@H]2[C@@H]3CC=C4C[C@@H](OC(=O)N(CCC5CC(N)C5)CCC5CC(N)C5)CC[C@]4(C)[C@H]3CC[C@]12C)C(C)C.Cl.Cl (stereo partly drawn) [SA186, (3S,8S,9S,10R,13R,14S,17R)-17-((2R,5R)-5-ethyl-6-methylheptan-2-yl)-10,13-dimethyl-2,3,4,7,8,9,10,11,12,13,14,15,16,17-tetradecahydro-1H-cyclopenta[a]phenanthren-3-yl bis(2-(3-aminocyclobutyl)ethyl)carbamate dihydrochloride] | – | – | – | 73 | 0.14 | 99.3 | –
CC[C@H](CC[C@@H](C)[C@H]1CC[C@H]2[C@@H]3CC=C4C[C@@H](SSCCC(=O)N(CCC5CC(N)C5)CCC5CC(N)C5)CC[C@]4(C)[C@H]3CC[C@]12C)C(C)C.Cl.Cl (stereo partly drawn) [SA187, N,N-bis(2-(3-aminocyclobutyl)ethyl)-3-(((3S,8S,9S,10R,13R,14S,17R)-17-((2R,5R)-5-ethyl-6-methylheptan-2-yl)-10,13-dimethyl-2,3,4,7,8,9,10,11,12,13,14,15,16,17-tetradecahydro-1H-cyclopenta[a]phenanthren-3-yl)disulfaneyl)propanamide dihydrochloride] | – | – | – | 73 | 0.17 | 99.0 | –
CC(C)CCC[C@@H](C)[C@H]1CC[C@H]2[C@@H]3CC=C4C[C@@H](OC(=O)CCCC(=O)N(CCC5CC(N)C5)CCC5CC(N)C5)CC[C@]4(C)[C@H]3CC[C@]12C.Cl.Cl (stereo partly drawn) [SA188, (3S,8S,9S,10R,13R,14S,17R)-10,13-dimethyl-17-((R)-6-methylheptan-2-yl)-2,3,4,7,8,9,10,11,12,13,14,15,16,17-tetradecahydro-1H-cyclopenta[a]phenanthren-3-yl 5-(bis(2-(3-aminocyclobutyl)ethyl)amino)-5-oxopentanoate dihydrochloride] | – | – | – | 80 | 0.13 | 99.6 | –
CC[C@H](CC[C@@H](C)[C@H]1CC[C@H]2[C@@H]3CC=C4C[C@@H](OC(=O)N(CC56CC(N)(C5)C6)CC56CC(N)(C5)C6)CC[C@]4(C)[C@H]3CC[C@]12C)C(C)C.Cl.Cl [SA189, (3S,8S,9S,10R,13R,14S,17R)-17-((2R,5R)-5-ethyl-6-methylheptan-2-yl)-10,13-dimethyl-2,3,4,7,8,9,10,11,12,13,14,15,16,17-tetradecahydro-1H-cyclopenta[a]phenanthren-3-yl bis((3-aminobicyclo[1.1.1]pentan-1-yl)methyl)carbamate dihydrochloride] | – | – | – | 78 | 0.33 | 98.1 | –
